Measurements: US7928135B2, “Benzene, pyridine, and pyridazine derivatives” (Serenex, Inc., priority 2005, dated 2011)

Test system: HSP-90 (heat shock protein 90)
Test: Determination of affinity for HSP-90 (elution from purine affinity column, SDS-PAGE densitometry)
Assay type: binding
Set-up: key: +++: very high; ++: high; +: moderate
Conditions: elution of HSP-90 from purine affinity column with 20, 100 and 500 μM test compound
Method: Affinity of test compounds for HSP-90 was determined as follows: Protein mixtures obtained from a variety of organ tissues (for example: spleen, liver and lung) were reversibly bound to a purine affinity column to capture purine-binding proteins, especially HSP-90. The purine affinity column was washed several times, and then eluted with 20 μM, 100 μM, and 500 μM of test compound. Compounds of Formula I elute HP-90 in a dose-dependent manner vs. a control elution using dimethylsulfoxide. The elution profile of Formula I compounds was determined by 1-dimensional SDS polyacrylamide gel electrophoresis. Gels were stained with a fluorescent stain such as sypro ruby (a highly sensitive fluorescent protein stain that can readily detect less than 1 fmol of total protein, i.e., less than 0.04 ng for a 40 kDa protein) or silver nitrate. The gels were imaged using a standard flat bed gel imager and the amount of protein estimated by densitometry. The percent of HSP-90 protein eluted from the column at each concentration was determined and IC50 values were calculated from these estimates. The identity of a band containing HSP-90 was determined by protein sequencing using mass spectroscopy.
Compounds of the invention are inhibitors of HSP-90 (heat shock protein 90). Several exemplary compounds useful in the methods of the invention are listed below.

SMILES | relative binding affinity to HSP-90
C=CCNc1cc(-n2ccc3c2CCCC3=O)ccc1C(N)=O [Compound 88, 2-(allylamino)-4-(4-oxo-4,5,6,7-tetrahydro-1H-indol-1-yl)benzamide] | ++
Cc1cc2c(n1-c1ccc(C(N)=O)c(-n3ccnc3)c1)CC(C)(C)CC2=O [Compound 80, 2-(1H-imidazol-1-yl)-4-(2,6,6-trimethyl-4-oxo-4,5,6,7-tetrahydro-1H-indol-1-yl)benzamide] | +
C=CCCc1nn(-c2ccc(C(N)=O)cc2)c2c1C(=O)CC(C)(C)C2 [Compound 134, 4-(3-but-3-en-1-yl-6,6-dimethyl-4-oxo-4,5,6,7-tetrahydro-1H-indazol-1-yl)benzamide] | ++
CC(=O)OCC(=O)NCCNc1cc(-n2cc(C)c3c2CC(C)(C)CC3=O)ccc1C(N)=O [Compound 111, 2-[(2-{[2-(aminocarbonyl)-5-(3,6,6-trimethyl-4-oxo-4,5,6,7-tetrahydro-1H-indol-1-yl)phenyl]amino}ethyl)amino]-2-oxoethyl acetate] | +++
CCn1nccc1Nc1cc(-n2c(C)cc3c2CC(C)(C)CC3=O)ccc1C(N)=O [Compound 83, 2-[(1-ethyl-1H-pyrazol-5-yl)amino]-4-(2,6,6-trimethyl-4-oxo-4,5,6,7-tetrahydro-1H-indol-1-yl)benzamide] | +++
Cc1cc2c(n1-c1cnc(C(N)=O)c(Nc3ccccc3)c1)CC(C)(C)CC2=O [Compound 75, 3-anilino-5-(2,6,6-trimethyl-4-oxo-4,5,6,7-tetrahydro-1H-indol-1-yl)pyridine-2-carboxamide] | +++
COc1cc(Nc2cc(-n3ccc4c3CCCC4=O)ccc2C(N)=O)cc(OC)c1OC [Compound 86, 4-(4-oxo-4,5,6,7-tetrahydro-1H-indol-1-yl)-2-[(3,4,5-trimethoxyphenyl)amino]benzamide] | ++
COc1ccc(Nc2cc(-n3c(C)cc4c3CC(C)(C)CC4=O)ccc2C(N)=O)cn1 [Compound 87, 2-[(6-methoxypyridin-3-yl)amino]-4-(2,6,6-trimethyl-4-oxo-4,5,6,7-tetrahydro-1H-indol-1-yl)benzamide] | ++
CC1(C)CC(=O)c2c(C(F)(F)F)nn(-c3ccc(C(N)=O)c(NCC(O)CO)c3)c2C1 (stereo not drawn) [Compound 30, 2-(2,3-Dihydroxy-propylamino)-4-(6,6-dimethyl-4-oxo-3-trifluoromethyl-4,5,6,7-tetrahydro-indazol-1-yl)-benzamide] | ++
COCCNc1cc(-n2c(C)c(C)c3c2CCCC3=O)ccc1C(N)=O [Compound 92, 4-(2,3-dimethyl-4-oxo-4,5,6,7-tetrahydro-1H-indol-1-yl)-2-[(2-methoxyethyl)amino]benzamide] | ++
C=CCNc1cc(-n2c(C)c(C)c3c2CCCC3=O)ccc1C(N)=O [Compound 91, 2-(allylamino)-4-(2,3-dimethyl-4-oxo-4,5,6,7-tetrahydro-1H-indol-1-yl)benzamide] | ++
CC1(C)CC(=O)c2c(C(F)F)nn(-c3ccc(C(N)=O)c(NC4CCSCC4)c3)c2C1 [Compound 32, 4-(3-Difluoromethyl-6,6-dimethyl-4-oxo-4,5,6,7-tetrahydro-indazol-1-yl)-2-(tetrahydro-thiopyran-4-ylamino)-benzamide] | +++
Cc1cc2c(n1-c1ccc(C(N)=O)c(N[C@H](C(=O)O)C(C)C)c1)CC(C)(C)CC2=O [Compound 78, N-[2-(aminocarbonyl)-5-(2,6,6-trimethyl-4-oxo-4,5,6,7-tetrahydro-1H-indol-1-yl)phenyl]-L-valine] | +
COc1cc(Nc2cc(-n3nc(C(F)(F)F)c4c3CC(C)(C)CC4=O)ccc2C(N)=O)cc(OC)c1OC [Compound 107, 4-[6,6-dimethyl-4-oxo-3-(trifluoromethyl)-4,5,6,7-tetrahydro-1H-indazol-1-yl]-2-[(3,4,5-trimethoxyphenyl)amino]benzamide] | ++
Cc1nn(-c2ccc(C(N)=O)c(Nc3ccc(=O)[nH]c3)c2)c2c1C(=O)CC(C)(C)C2 [Compound 115, 2-[(6-oxo-1,6-dihydropyridin-3-yl)amino]-4-(3,6,6-trimethyl-4-oxo-4,5,6,7-tetrahydro-1H-indazol-1-yl)benzamide] | +++
Cc1cn(-c2ccc(C(N)=O)c(NC3CCN(C(=O)CN(C)C)CC3)c2)c2c1C(=O)CC(C)(C)C2 [Compound 109, 2-{[1-(N,N-dimethylglycyl)piperidin-4-yl]amino}-4-(3,6,6-trimethyl-4-oxo-4,5,6,7-tetrahydro-1H-indol-1-yl)benzamide] | ++
Cc1nn(-c2ccc(C(N)=O)c(NCCCN3CCCC3=O)c2)c2c1C(=O)CC(C)(C)C2 [Compound 34, 2-[3-(2-Oxo-pyrrolidin-1-yl)-propylamino]-4-(3,6,6-trimethyl-4-oxo-4,5,6,7-tetrahydro-indazol-1-yl)-benzamide] | ++
Cc1cn(-c2ccc(C(N)=O)c(NC3CCc4ccccc43)c2)c2c1C(=O)CC(C)(C)C2 (stereo not drawn) [Compound 54, 2-(2,3-dihydro-1H-inden-1-ylamino)-4-(3,6,6-trimethyl-4-oxo-4,5,6,7-tetrahydroindol-1-yl)benzamide] | +
Cc1nn(-c2ccc(C(N)=O)c(N[C@H]3CCN(S(C)(=O)=O)C3)c2)c2c1C(=O)CC(C)(C)C2 [Compound 135, 2-{[(3S)-1-(methylsulfonyl)pyrrolidin-3-yl]amino}-4-(3,6,6-trimethyl-4-oxo-4,5,6,7-tetrahydro-1H-indazol-1-yl)benzamide] | +++
Cc1nn(-c2ccc(C(N)=O)c(NCCCS(C)(=O)=O)c2)c2c1C(=O)CC(C)(C)C2 [Compound 132, 2-{[3-(methylsulfonyl)propyl]amino}-4-(3,6,6-trimethyl-4-oxo-4,5,6,7-tetrahydro-1H-indazol-1-yl)benzamide] | +++
Cc1cc2c(n1-c1ccc(C(N)=O)c(Nc3ccc(Cl)cc3)c1)CC(C)(C)CC2=O [Compound 73, 2-[(4-chlorophenyl)amino]-4-(2,6,6-trimethyl-4-oxo-4,5,6,7-tetrahydro-1H-indol-1-yl)benzamide] | +
C=CCNc1cc(-n2cc(C)c3c2CC(C)(C)CC3=O)ccc1C(N)=O [Compound 50, 2-(allylamino)-4-(3,6,6-trimethyl-4-oxo-4,5,6,7-tetrahydroindol-1-yl)benzamide] | +++
Cc1cc2c(n1-c1ccc(C(N)=O)c(N3CCOCC3)c1)CC(C)(C)CC2=O [Compound 79, 2-morpholin-4-yl-4-(2,6,6-trimethyl-4-oxo-4,5,6,7-tetrahydro-1H-indol-1-yl)benzamide] | +
COCCNc1cc(-n2nc(C)c3c2CC(C)(C)CC3=O)ccc1C(N)=O [Compound 95, 2-[(2-methoxyethyl)amino]-4-(3,6,6-trimethyl-4-oxo-4,5,6,7-tetrahydro-1H-indazol-1-yl)benzamide] | +++
